Literature values as cited in patent US20070099889A1, “Use of pseudan and pseudan inclusion bodies” (priority 2005, published 2007).

Settings: isolated from filtrates of 4 to 6 week old culture of P. aeruginosa

CCCCCCCCCc1cc(O)c2ccccc2n1 [4-hydroxy-2-nonylquinoline]
antibiotic activity: exhibit antibiotic activity
